US4816490A, “Novel therapeutic use of a derivative of indane dione and the pharmaceutical compositions intended for this use” (priority 1987, dated 1989)

Legend:
[1] = tested on: hyperlipidaemia induced by TRITON WR 1339; assay: Hyperlipidaemia induced by TRITON WR 1339 in the Wistar rat; type: in vivo; conditions: for Dose dependence of hypolipaemiant activity: 250 and 500 mg/kg
Method: Feeding by standard Regimen UAR A04
Drinking water ad libitum
6 animals per dose in a cage in MAKROLON of 60×40 cm filled with shavings of wood.
10 mn after: administration of the test compound
6 hours after: 1st sampling of the blood at the retro-orbital sinus
Total cholesterol by the colorimetric method of RICHMOND
Cholesterol in HDL by the colorimetric method of RICHMOND after precipitation by CONCANAVALIN A
Cholesterol in LDL by the colorimetric method of RICHMOND after precipitation by CONCANAVALIN A
Total lipids by the Zollner's sulphophosphovanillic method
Triglycerids by the BUCOLO's enzymatic method.

[2] = Anti-lipaemiant activity (general statement); type: in vivo; conditions: read-out: Dose from which a clear anti-lipaemiant activity is shown

For COc1ccc(C(=O)CC2(O)C(=O)c3ccccc3C2=O)cc1OC [Compound of the invention, 2-[(3,4-dimethoxy-benzoyl)-methyl]-2-hydroxy-1,3-dioxo Indane], the “Dose dependence of hypolipaemiant activity” value ([1]; 6 hours after TRITON WR 1339) was “directly proportional to the doses”, the “Dose dependence of hypolipaemiant activity” value ([1]; 24 hours after TRITON WR 1339) was “inversely proportional to the dose” and the “Total Score vs 250 mg/kg Procetofene” value ([1]; 6 hours after, 125 mg/kg oral) was 2.75. The “Total cholesterol score vs 250 mg/kg Procetofene” value ([1]; 6 hours after, 125 mg/kg oral) was 2.44, the “Triglycerids score vs 250 mg/kg Procetofene” value ([1]; 6 hours after, 125 mg/kg oral) was 0.31 and the “Cholesterol HDL/LDL score vs 250 mg/kg Procetofene” value ([1]; 6 hours after, 250 mg/kg oral) was 0.87. The “Total Score vs 250 mg/kg Procetofene” value ([1]; 6 hours after, 250 mg/kg oral) was 3.74, the “Total cholesterol score vs 250 mg/kg Procetofene” value ([1]; 6 hours after, 250 mg/kg oral) was 1.15 and the “Total lipids score vs 250 mg/kg Procetofene” value ([1]; 6 hours after, 250 mg/kg oral) was 0.92. For the same compound, the “Triglycerids score vs 250 mg/kg Procetofene” value ([1]; 6 hours after, 250 mg/kg oral) was 0.80, the “Cholesterol HDL/LDL score vs 250 mg/kg Procetofene” value ([1]; 6 hours after, 500 mg/kg oral) was 2.00 and the “Total Score vs 250 mg/kg Procetofene” value ([1]; 6 hours after, 500 mg/kg oral) was 4.95. The “Total cholesterol score vs 250 mg/kg Procetofene” value ([1]; 6 hours after, 500 mg/kg oral) was 0.35, the “Total lipids score vs 250 mg/kg Procetofene” value ([1]; 6 hours after, 500 mg/kg oral) was 1.00 and the “Triglycerids score vs 250 mg/kg Procetofene” value ([1]; 6 hours after, 500 mg/kg oral) was 1.60. For the same compound, the “Total Score vs 250 mg/kg Procetofene” value ([1]; 6 hours after, 750 mg/kg oral) was 1.72, the “Total cholesterol score vs 250 mg/kg Procetofene” value ([1]; 6 hours after, 750 mg/kg oral) was 0.78 and the “Total lipids score vs 250 mg/kg Procetofene” value ([1]; 6 hours after, 750 mg/kg oral) was 0.14. The “Triglycerids score vs 250 mg/kg Procetofene” value ([1]; 6 hours after, 750 mg/kg oral) was 0.80, the “Cholesterol HDL/LDL score vs 250 mg/kg Procetofene” value ([1]; 24 hours after, 125 mg/kg oral) was 1.40 and the “Total Score vs 250 mg/kg Procetofene” value ([1]; 24 hours after, 125 mg/kg oral) was 1.94. The “Total cholesterol score vs 250 mg/kg Procetofene” value ([1]; 24 hours after, 125 mg/kg oral) was 0.28, the “Triglycerids score vs 250 mg/kg Procetofene” value ([1]; 24 hours after, 125 mg/kg oral) was 0.26 and the “Cholesterol HDL/LDL score vs 250 mg/kg Procetofene” value ([1]; 24 hours after, 250 mg/kg oral) was 1.10. For the same compound, the “Total Score vs 250 mg/kg Procetofene” value ([1]; 24 hours after, 250 mg/kg oral) was 4.64, the “Total cholesterol score vs 250 mg/kg Procetofene” value ([1]; 24 hours after, 250 mg/kg oral) was 1.13 and the “Total lipids score vs 250 mg/kg Procetofene” value ([1]; 24 hours after, 250 mg/kg oral) was 1.56. The “Triglycerids score vs 250 mg/kg Procetofene” value ([1]; 24 hours after, 250 mg/kg oral) was 0.85, the “Cholesterol HDL/LDL score vs 250 mg/kg Procetofene” value ([1]; 24 hours after, 500 mg/kg oral) was 0.80 and the “Total Score vs 250 mg/kg Procetofene” value ([1]; 24 hours after, 500 mg/kg oral) was 3.66. The “Total cholesterol score vs 250 mg/kg Procetofene” value ([1]; 24 hours after, 500 mg/kg oral) was 0.75, the “Total lipids score vs 250 mg/kg Procetofene” value ([1]; 24 hours after, 500 mg/kg oral) was 1.62 and the “Triglycerids score vs 250 mg/kg Procetofene” value ([1]; 24 hours after, 500 mg/kg oral) was 0.49. For the same compound, the “Cholesterol HDL/LDL score vs 250 mg/kg Procetofene” value ([1]; 24 hours after, 750 mg/kg oral) was 0.40, the “Total Score vs 250 mg/kg Procetofene” value ([1]; 24 hours after, 750 mg/kg oral) was 1.73 and the “Total cholesterol score vs 250 mg/kg Procetofene” value ([1]; 24 hours after, 750 mg/kg oral) was 0.61. For the same compound, the “Triglycerids score vs 250 mg/kg Procetofene” value ([1]; 24 hours after, 750 mg/kg oral) was 0.72, the minimal effective dose ([1]; Rattus norvegicus, TRITON WR 1339, rats, oral, read-out: Oral dose from which hyperlipaemia was antagonized or decreased) was no less than 125 mg/kg and the “Antihyperlipaemiant activity, compound vs Procetofene” value ([1]; same doses (250 and 500 mg/kg)) was “antihyperlipaemiant activity about equal”. It also gave a minimal effective dose [2] of no less than 100 mg/kg.
